Laboratory results taken from patent publication US20230085307A1, “PYRIDAZINONE COMPOUND AND HERBICIDE” (NISSAN CHEMICAL CORPORATION, priority 2019, published 2023).

Columns and labels:
[1] = test system: late watergrass; test: Test Example 1: herbicidal activity, application before weed generation under submerged conditions (Table 16, symbol A); format: in vivo, late watergrass (Echinochloa oryzicola); conditions: amount of applied herbicide 320 g/ha
Method in brief: (§1)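 Submerged Wagner pots (alluvial soil, 4 cm water) sown with weed seeds and planted with 2.5-leaf rice seedlings; emulsifiable concentrate diluted in water applied to water surface on sowing day. Held in greenhouse at 25-30 °C; injury scored 0-5 by herbicidal rate after three weeks.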

[2] = test system: chickweed; test: Test Example 5: herbicidal effect by foliage application, plastic box (Table 20, symbol P); format: in vivo, common chickweed (Stellaria media); conditions: amount of applied herbicide 320 g/ha; foliage application after 14-day growth; evaluated three weeks after application
Method in brief: (§2)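 Plants sown in sterilized diluvial soil and grown 14 days in a greenhouse at 25° C to 30° C, then sprayed on the foliage with the compound's emulsion diluted in water to a predetermined herbicide amount. Injury to weeds and crops scored three weeks after application on a visual rating scale.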

[3] = test system: redroot pigweed; test: Test Example 5: herbicidal effect by foliage application, plastic box (Table 20, symbol N); format: in vivo, redroot pigweed (Amaranthus retroflexus); conditions: amount of applied herbicide 320 g/ha; foliage application after 14-day growth; evaluated three weeks after application
Method in brief: as §2

[4] = test system: velvetleaf; test: Test Example 4: herbicidal effect by soil treatment (Table 19, symbol M); format: in vivo, velvetleaf (Abutilon theophrasti); conditions: amount of applied herbicide 320 g/ha
Method in brief: (§3)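 Seeds were sown in sterilized diluvial soil and covered with about 1.5 cm of soil. An emulsion formulation diluted with water to a predetermined herbicide amount was sprayed evenly onto the soil surface. Plants grew in a greenhouse at 25° C. to 30° C., and the effect was scored three weeks after application using criteria from an earlier test.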

[5] = test system: oval-leafed pondweed; test: Test Example 1: herbicidal activity, application before weed generation under submerged conditions (Table 16, symbol C); format: in vivo, oval-leafed pondweed (Monochoria vaginalis); conditions: amount of applied herbicide 320 g/ha
Method in brief: as §1

[6] = test system: barnyard grass; test: Test Example 5: herbicidal effect by foliage application, plastic box (Table 20, symbol H); format: in vivo, barnyard grass (Echinochloa crus-galli); conditions: amount of applied herbicide 320 g/ha; foliage application after 14-day growth; evaluated three weeks after application
Method in brief: as §2

[7] = test system: wild oat; test: Test Example 5: herbicidal effect by foliage application, plastic box (Table 20, symbol I); format: in vivo, wild oat (Avena fatua); conditions: amount of applied herbicide 320 g/ha; foliage application after 14-day growth; evaluated three weeks after application
Method in brief: as §2

[8] = test system: lambsquarters; test: Test Example 5: herbicidal effect by foliage application, plastic box (Table 20, symbol O); format: in vivo, lambsquarters (Chenopodium album); conditions: amount of applied herbicide 320 g/ha; foliage application after 14-day growth; evaluated three weeks after application
Method in brief: as §2

[9] = test system: lambsquarters; test: Test Example 4: herbicidal effect by soil treatment (Table 19, symbol O); format: in vivo, lambsquarters (Chenopodium album); conditions: amount of applied herbicide 320 g/ha
Method in brief: as §3

[10] = test system: barnyard grass; test: Test Example 4: herbicidal effect by soil treatment (Table 19, symbol H); format: in vivo, barnyard grass (Echinochloa crus-galli); conditions: amount of applied herbicide 320 g/ha
Method in brief: as §3

[11] = test system: green foxtail; test: Test Example 5: herbicidal effect by foliage application, plastic box (Table 20, symbol G); format: in vivo, green foxtail (Setaria viridis); conditions: amount of applied herbicide 320 g/ha; foliage application after 14-day growth; evaluated three weeks after application
Method in brief: as §2

[12] = test system: windgrass; test: Test Example 5: herbicidal effect by foliage application, plastic box (Table 20, symbol L); format: in vivo, windgrass (Apera spica-venti); conditions: amount of applied herbicide 320 g/ha; foliage application after 14-day growth; evaluated three weeks after application
Method in brief: as §2

[13] = test system: barnyard grass; test: Test Example 3: herbicidal effect by foliage application, Wagner pot (Table 18, symbol H); format: in vivo, barnyard grass (Echinochloa crus-galli); conditions: 320 g/ha
Method in brief: (§4)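 Plants were sown in alluvial soil held under 0.1–0.5 cm standing water and grown 14 days in a greenhouse at 25–30 °C. An emulsifiable formulation, water-diluted to the set dose, was then sprayed onto the foliage, and effects were scored three weeks later using previously defined criteria.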

[14] = test system: southern crabgrass; test: Test Example 5: herbicidal effect by foliage application, plastic box (Table 20, symbol F); format: in vivo, southern crabgrass (Digitaria ciliaris); conditions: amount of applied herbicide 320 g/ha; foliage application after 14-day growth; evaluated three weeks after application
Method in brief: as §2

[15] = test system: blackgrass; test: Test Example 5: herbicidal effect by foliage application, plastic box (Table 20, symbol J); format: in vivo, blackgrass (Alopecurus myosuroides); conditions: amount of applied herbicide 320 g/ha; foliage application after 14-day growth; evaluated three weeks after application
Method in brief: as §2

[16] = test system: green foxtail; test: Test Example 4: herbicidal effect by soil treatment (Table 19, symbol G); format: in vivo, green foxtail (Setaria viridis); conditions: amount of applied herbicide 320 g/ha
Method in brief: as §3

[17] = test system: rice flat sedge; test: Test Example 3: herbicidal effect by foliage application, Wagner pot (Table 18, symbol E); format: in vivo, rice flat sedge (Cyperus iria); conditions: 320 g/ha
Method in brief: as §4

[18] = test system: southern crabgrass; test: Test Example 4: herbicidal effect by soil treatment (Table 19, symbol F); format: in vivo, southern crabgrass (Digitaria ciliaris); conditions: amount of applied herbicide 320 g/ha
Method in brief: as §3

[19] = test system: Italian ryegrass; test: Test Example 4: herbicidal effect by soil treatment (Table 19, symbol K); format: in vivo, Italian ryegrass (Lolium multiflorum); conditions: amount of applied herbicide 320 g/ha
Method in brief: as §3

[20] = test system: wild oat; test: Test Example 4: herbicidal effect by soil treatment (Table 19, symbol I); format: in vivo, wild oat (Avena fatua); conditions: amount of applied herbicide 320 g/ha
Method in brief: as §3

[21] = test system: Japanese bulrush; test: Test Example 1: herbicidal activity, application before weed generation under submerged conditions (Table 16, symbol B); format: in vivo, Japanese bulrush (Schoenoplectus juncoides); conditions: amount of applied herbicide 320 g/ha
Method in brief: as §1

[22] = test system: redroot pigweed; test: Test Example 4: herbicidal effect by soil treatment (Table 19, symbol N); format: in vivo, redroot pigweed (Amaranthus retroflexus); conditions: amount of applied herbicide 320 g/ha
Method in brief: as §3

[23] = test system: chickweed; test: Test Example 4: herbicidal effect by soil treatment (Table 19, symbol P); format: in vivo, common chickweed (Stellaria media); conditions: amount of applied herbicide 320 g/ha
Method in brief: as §3

[24] = test system: false cleavers; test: Test Example 4: herbicidal effect by soil treatment (Table 19, symbol Q); format: in vivo, false cleavers (Galium spurium); conditions: amount of applied herbicide 320 g/ha
Method in brief: as §3

[25] = test system: persian speedwell; test: Test Example 5: herbicidal effect by foliage application, plastic box (Table 20, symbol R); format: in vivo, Persian speedwell (Veronica persica); conditions: amount of applied herbicide 320 g/ha; foliage application after 14-day growth; evaluated three weeks after application
Method in brief: as §2

[26] = test system: Chinese sprangletop; test: Test Example 3: herbicidal effect by foliage application, Wagner pot (Table 18, symbol D); format: in vivo, chinese sprangletop (Leptochloa chinensis); conditions: 320 g/ha
Method in brief: as §4

[27] = test system: windgrass; test: Test Example 4: herbicidal effect by soil treatment (Table 19, symbol L); format: in vivo, windgrass (Apera spica-venti); conditions: amount of applied herbicide 320 g/ha
Method in brief: as §3

[28] = test system: persian speedwell; test: Test Example 4: herbicidal effect by soil treatment (Table 19, symbol R); format: in vivo, Persian speedwell (Veronica persica); conditions: amount of applied herbicide 320 g/ha
Method in brief: as §3

[29] = test system: Italian ryegrass; test: Test Example 5: herbicidal effect by foliage application, plastic box (Table 20, symbol K); format: in vivo, Italian ryegrass (Lolium multiflorum); conditions: amount of applied herbicide 320 g/ha; foliage application after 14-day growth; evaluated three weeks after application
Method in brief: as §2

[30] = test system: blackgrass; test: Test Example 4: herbicidal effect by soil treatment (Table 19, symbol J); format: in vivo, blackgrass (Alopecurus myosuroides); conditions: amount of applied herbicide 320 g/ha
Method in brief: as §3

[31] = test system: velvetleaf; test: Test Example 5: herbicidal effect by foliage application, plastic box (Table 20, symbol M); format: in vivo, velvetleaf (Abutilon theophrasti); conditions: amount of applied herbicide 320 g/ha; foliage application after 14-day growth; evaluated three weeks after application
Method in brief: as §2

CCCC(=O)Oc1c(C)nn(C)c(=O)c1-c1c(-c2ccc3c(c2)OCO3)sc2cc(F)c(F)cc12 [5-036]
Herbicidal effect, A: late watergrass [1]: 2 (Herbicidal rate of 20% or more and less than 40%) | Herbicidal effect by foliage application, P: chickweed [2]: 5 (Herbicidal rate of 90% or more (almost completely withered)) | Herbicidal effect by foliage application, N: redroot pigweed [3]: 1 (Herbicidal rate of 5% or more and less than 20%) | M: velvetleaf, herbicidal effect grade [4]: 0 (Herbicidal rate of 5% or less (almost no effect)) | Herbicidal effect, C: oval-leafed pondweed [5]: 2 (Herbicidal rate of 20% or more and less than 40%) | Herbicidal effect by foliage application, H: barnyard grass [6]: 0 (Herbicidal rate of 5% or less (almost no effect)) | Herbicidal effect by foliage application, I: wild oat [7]: 0 (Herbicidal rate of 5% or less (almost no effect)) | Herbicidal effect by foliage application, O: lambsquarters [8]: 3 (Herbicidal rate of 40% or more and less than 70%) | O: lambsquarters, herbicidal effect grade [9]: 3 (Herbicidal rate of 40% or more and less than 70%) | H: barnyard grass, herbicidal effect grade [10]: 0 (Herbicidal rate of 5% or less (almost no effect)) | Herbicidal effect by foliage application, G: green foxtail [11]: 0 (Herbicidal rate of 5% or less (almost no effect)) | Herbicidal effect by foliage application, L: windgrass [12]: 0 (Herbicidal rate of 5% or less (almost no effect)) | herbicidal effect on barnyard grass (H) [13]: 2 (Herbicidal rate of 20% or more and less than 40%) | Herbicidal effect by foliage application, F: southern crabgrass [14]: 0 (Herbicidal rate of 5% or less (almost no effect)) | Herbicidal effect by foliage application, J: blackgrass [15]: 0 (Herbicidal rate of 5% or less (almost no effect)) | G: green foxtail, herbicidal effect grade [16]: 1 (Herbicidal rate of 5% or more and less than 20%) | herbicidal effect on rice flat sedge (E) [17]: 0 (Herbicidal rate of 5% or less (almost no effect)) | F: southern crabgrass, herbicidal effect grade [18]: 0 (Herbicidal rate of 5% or less (almost no effect)) | K: Italian ryegrass, herbicidal effect grade [19]: 0 (Herbicidal rate of 5% or less (almost no effect)) | I: wild oat, herbicidal effect grade [20]: 0 (Herbicidal rate of 5% or less (almost no effect)) | Herbicidal effect, B: Japanese bulrush [21]: 2 (Herbicidal rate of 20% or more and less than 40%) | N: redroot pigweed, herbicidal effect grade [22]: 4 (Herbicidal rate of 70% or more and less than 90%) | P: chickweed, herbicidal effect grade [23]: 3 (Herbicidal rate of 40% or more and less than 70%) | Q: false cleavers, herbicidal effect grade [24]: 0 (Herbicidal rate of 5% or less (almost no effect)) | Herbicidal effect by foliage application, R: persian speedwell [25]: 5 (Herbicidal rate of 90% or more (almost completely withered)) | herbicidal effect on Chinese sprangletop (D) [26]: 0 (Herbicidal rate of 5% or less (almost no effect)) | L: windgrass, herbicidal effect grade [27]: 0 (Herbicidal rate of 5% or less (almost no effect)) | R: persian speedwell, herbicidal effect grade [28]: 3 (Herbicidal rate of 40% or more and less than 70%) | Herbicidal effect by foliage application, K: Italian ryegrass [29]: 0 (Herbicidal rate of 5% or less (almost no effect)) | J: blackgrass, herbicidal effect grade [30]: 0 (Herbicidal rate of 5% or less (almost no effect)) | Herbicidal effect by foliage application, M: velvetleaf [31]: 3 (Herbicidal rate of 40% or more and less than 70%)
